Earlier results in patent US8350059B2, “Intermediates and methods for making zearalenone macrolide analogs” (Eisai R&D Management Co., Ltd., priority 2007, dated 2013).

System: Map/Erk kinase (MEK)
Details: background statement

COc1cc(O)c2c(c1)/C=C/C[C@H](O)[C@H](O)C(=O)/C=C\C[C@H](C)OC2=O [F152]
inhibition of the phosphorylating enzyme Map/Erk kinase (MEK): inhibit the phosphorylating enzyme Map/Erk kinase (MEK)
